What was measured:
HT199 melanoma cell line = experiment: In vitro growth of melanoma cells with DDW, doxorubicin and their combination; type: cell-based; conditions: 450 and 900 nM in normal (150 ppm D) medium
Experimental: Curves 4 and 6 show the inhibition by DDW plus the mentioned two concentrations of doxorubicin.
In the experiment, the effect of DDW, doxorubicin, and their combination was tested on HT199 melanoma cell line.

[1] = system: prostate cancer with bone metastasis; experiment: Prostate cancer case reports: PSA tumor marker and remission versus DDW consumption; type: in vivo, human; conditions: patient, PSA over 1000 ng/mL, before start of DDW
Experimental: FIG. 1: Data of a patient with prostate cancer and bone metastasis, with extremely high PSA level (1000 ng/mL). Beside conventional treatment, DDW was also applied. In spite of the potentially bad prognosis the patient remained in regression for 9 years. PSA level: left Y axis and broken line; DDW dose: right Y axis and solid line.
FIG. 2: patient with prostate cancer and extreme PSA levels. […] Interrupting the DDW cure caused increasing PSA levels, and after finishing DDW consumption in December 2009 PSA was soaring. Broken line: PSA level, solid line: DDW dose.
Patient 2 (FIG. 1) had bone metastasis in the early phase of the disease, PSA was over 1000 ng/mL. […] They started consuming DDW in April 2003, 640 days (=21.3 months) after diagnosing bone metastasis with 15.0 ng/mL PSA. They consumed DDW for nearly one year at DdU of 1.0. A break of 6 months followed this cure, during which the disease progressed and PSA increased from 1 to 4.34 ng/mL. A new DDW cure brought regression and PSA below 1 ng/mL. 4 years after diagnosis, Androcure was replaced with Suprefact. Further DDW treatments (see FIG. 1 for DdU values) PSA was decreased in the following 3 years and the patient had no complaints in spite of the existing bone metastasis and the generally bad prognosis. […]

kidney tumor = experiment: Case report: kidney tumor patient, Sutent with and without DDW; type: in vivo, human
Experimental: c/ With another tyrosine kinase inhibiting agent, Sutent, a similar positive interaction was found. In one patient, kidney tumor was diagnosed in spring 2003 and was surgically removed. Up to spring 2006, three further operations were necessary because of the disease recidivating.
(§1) DdU units used in the treatment were determined as described in Example 1 and 2.

breast cancer = conditions: Taxotere without DDW, general experience; cited from earlier work
[2] = system: chronic myeloid leukemia (CML); experiment: Case report: chronic myeloid leukemia patient, DDW with Litaril, then STI 571 (Gleevec); type: in vivo, human
Experimental: b/ In a young patient in 1998, chronic myeloid leukemia (CML) was diagnosed, and was medicated with Litaril because of high WBC count. […] In February 2001 the patient was enrolled in the clinical trial of the drug candidate STI 571 (Gleevec). By August 2001, bone marrow damage decreased to 66% from the previous 80%.
as §1

COc1cccc2c1C(=O)c1c(O)c3c(c(O)c1C2=O)C[C@@](O)(C(=O)CO)C[C@@H]3O[C@H]1C[C@H](N)[C@H](O)[C@H](C)O1 [doxorubicin]
effect on growth of melanoma cells (HT199 melanoma cell line): inhibitory effect

CC(=O)O[C@]1(C(C)=O)CC[C@H]2[C@@H]3C=C(Cl)C4=CC(=O)[C@@H]5C[C@@H]5[C@]4(C)[C@H]3CC[C@@]21C [Androcure]
PSA change [1]: PSA was rapidly lowered

CCN(CC)CCNC(=O)c1c(C)[nH]c(/C=C2\C(=O)Nc3ccc(F)cc32)c1C [Sutent]
tumor response (kidney tumor; one kidney tumor patient, Sutent without DDW, progression again in March 2007): efficient initially
tumor response (kidney tumor; same patient, DDW in parallel with Sutent from autumn 2007): the tumors shrank again
tumor response on images (kidney tumor; same patient, DDW in parallel with Sutent, three years later): ongoing decrease of the tumor sizes

CC(=O)O[C@@]12CO[C@@H]1C[C@H](O)[C@@]1(C)C(=O)[C@H](O)C3=C(C)[C@@H](OC(=O)[C@H](O)[C@@H](NC(=O)OC(C)(C)C)c4ccccc4)C[C@@](O)([C@@H](OC(=O)c4ccccc4)[C@H]21)C3(C)C [Taxotere, docetaxel]
MST (breast cancer): 20-22 months

C[C@]12CC[C@@H]3c4ccc(OC(=O)N(CCCl)CCCl)cc4CC[C@H]3[C@@H]1CC[C@@H]2OP(=O)(O)O [Estracyt]
PSA change [1]: PSA was rapidly lowered

Cc1ccc(NC(=O)c2ccc(CN3CCN(C)CC3)cc2)cc1Nc1nccc(-c2cccnc2)n1 [STI 571]
disease status ([2]; one CML patient consuming DDW and on STI 571, April 2002): fully negative
bone marrow damage ([2]; one CML patient consuming DDW, STI 571 from February 2001, by August 2001, previously 80%): 66%
